Tests used:
[1] = tested on: Blumeria (Erysiphe) graminis DC. f.sp. tritici E. Marchal; test: Wheat Powdery Mildew (WPM) residual fungicidal activity, inoculation 4 or 5 days after spray application on wheat plants; format: in vivo; conditions: for Emax at 0.2 ppm / Emax at 1 ppm / Emax at 5 ppm / Emax at 25 ppm / Emax at 125 ppm: Blumeria, WPM 4/5 da R (4/5 day residual), wheat variety Kanzler, read-out: Disease control (% efficacy); for Emax at 0.2 ppm: rate 0.2 ppm; for Emax at 125 ppm: rate 125 ppm; for WPM 4 day residual % disease control: Comparison test (Table IV), 200 l/ha
Source text: (§1) • Wheat Powdery Mildew (WPM): • HOST: Wheat (Triticum aestivum L.) variety Kanzler • PATHOGEN: Blumeria (Erysiphe) graminis DC. f.sp. tritici E. Marchal
(§2) • 1. Wheat seed (approximately 8-10/pot) is planted in 6 cm diameter plastic pots and maintained in the greenhouse. • 2. When the primary leaf (wheat) is fully expanded, formulated test compounds are sprayed with a single nozzle overhead track sprayer at a rate of 200 l/ha. Plants are then allowed to air-dry. • 3. Inoculation precedes treatment by 3 days in the case of curative evaluations and follows treatment by 4 or 5 days in case of residual evaluations. For inoculation, plants are set up on greenhouse benches with bottom watering mats and inoculated by dusting them with conidia from powdery mildew infected plants (stock cultures at an age of 10-14 days). Between inoculation and treatment for curative evaluations and between treatment and inoculation for residual evaluations, plants are maintained in the greenhouse with bottom watering. • 4. Disease on the primary leaf as percent leaf area with disease symptoms/signs is evaluated about 7 days after inoculation. In the case of wheat, the tips and bases of the leaves are excluded from the evaluation.
(§3) Percent disease control is then calculated by the following formula: % disease control = 100 -(% infection in treated plants)/(% infection in untreated plants)x 100 [formula]
(§4) • 1. Technical compounds are formulated in a solvent/surfactant system consisting of 5% acetone and 0.05% Tween 20 in deionized water. Compounds are dissolved in acetone prior to addition of the water; the Tween 20 can be added through either the acetone or the water. Dilutions are made using the solvent/surfactant system. Formulated compounds are prepared using deionized water. • 2. Two kinds of controls are included: • Plants treated with the solvent/surfactant solution and inoculated (Solvent Blank). • Untreated plants which are inoculated (Inoculated Control).
4/5 da R = 4/5 day residual Inoculation 4 or 5 days AFTER application
(§5) The fungicidal activity against wheat powdery mildew of the hydroxybenzophenones according to this invention has been compared with a fungicidal benzophenone known from EP 0 727 141 in the following table. Compounds applied to seedling wheat plants using a single-nozzle overhead track sprayer at an application rate of 200 l/ha.

[2] = tested on: Blumeria (Erysiphe) graminis DC. f.sp. tritici E. Marchal; test: Wheat Powdery Mildew (WPM) curative fungicidal activity, inoculation 3 days before spray application on wheat plants; format: in vivo; design: key to WPM 3 day curative Antisporulation effect: +++ = complete (no spore release); ++ = moderate; + = slight; o = none; conditions: for Emax at 0.2 ppm / Emax at 1 ppm / Emax at 5 ppm / Emax at 25 ppm / Emax at 125 ppm: Blumeria, 72 h, WPM 3 da C (3 day curative), wheat variety Kanzler, read-out: Disease control (% efficacy); for Emax at 0.2 ppm: rate 0.2 ppm; for Emax at 125 ppm: rate 125 ppm; for WPM 3 day curative % disease control / WPM 3 day curative Antisporulation effect: Comparison test (Table IV), 200 l/ha
Source text: as §1, §2, §3, §4, §5

Compound	Emax at 0.2 ppm [1] [%]	Emax at 1 ppm ([1]; rate 1 ppm) [%]	Emax at 5 ppm ([1]; rate 5 ppm) [%]	Emax at 25 ppm ([1]; rate 25 ppm) [%]	Emax at 125 ppm [1] [%]	Emax at 0.2 ppm [2] [%]	Emax at 1 ppm ([2]; rate 1 ppm) [%]	Emax at 5 ppm ([2]; rate 5 ppm) [%]	Emax at 25 ppm ([2]; rate 25 ppm) [%]	Emax at 125 ppm [2] [%]	WPM 4 day residual % disease control ([1]; rate 1 ppm) [%]	WPM 4 day residual % disease control ([1]; rate 5 ppm) [%]	WPM 4 day residual % disease control ([1]; rate 25 ppm) [%]	WPM 3 day curative % disease control ([2]; rate 1 ppm) [%]	WPM 3 day curative Antisporulation effect ([2]; rate 1 ppm)	WPM 3 day curative % disease control ([2]; rate 5 ppm) [%]	WPM 3 day curative Antisporulation effect ([2]; rate 5 ppm)	WPM 3 day curative % disease control ([2]; rate 25 ppm) [%]	WPM 3 day curative Antisporulation effect ([2]; rate 25 ppm)
COc1cc(C)c(C(=O)c2c(OC(C)=O)ccc(Br)c2C)c(OC)c1OC [Example 1, 2-acetoxy-5-bromo-6,6'-dimethyl-2',3',4'-trimethoxybenzophenone]	53	84	98	100	100	2	17	33	49	55									
COc1cc(C)c(C(=O)c2c(O)ccc(Br)c2C)c(OC)c1OC [Example 2, 5-bromo-6,6'-dimethyl-2-hydroxy-2',3',4'-trimethoxybenzophenone]	86	98	100	100	100	13	23	37	53	59	52	78	100	10	+	22	+	40	+++
CCCCOc1c(OC)c(OC)cc(C)c1C(=O)c1c(Cl)cccc1Cl [standard, 2'-n-butyloxy-2,6-dichloro-3',4'-dimethoxy-6'-methylbenzophenone, reference compound]											15	47	92	0	0	3	0	6	+
